From patent US5350677A, “Method of assaying phosphatase with 3,4-dinitrophenylphosphate” (Iatron Laboratories, Inc., priority 1989, dated 1994)

Legend:
[1] = without solubilizing auxiliary agent; cited from earlier work
[2] = Stability (decomposition) of substrate in aqueous solution; type: physicochemical

| SMILES | solubility in water [1] | decomposition ratio ([2]; enzyme reaction conditions (pH 5, 37° C.) for one hour, 60 min) [%] | stability of aqueous solution ([2]; under ice-cooling) |
| --- | --- | --- | --- |
| CC(=O)N[C@H]1[C@H](Oc2ccc([N+](=O)[O-])cc2Cl)O[C@H](CO)[C@@H](O)[C@@H]1O [2-chloro-4-nitrophenyl-N-acetyl-β-D-glucosaminide] | difficult to dissolve in water |  |  |
| CC(=O)N[C@H]1[C@H](Oc2ccc([N+](=O)[O-])c([N+](=O)[O-])c2)O[C@H](CO)[C@@H](O)[C@@H]1O [3,4-DNG, 3,4-dinitrophenyl-N-acetyl-β-D-glucosaminide] |  | 1.5 | stable |
